# Assay results taken from US4895937A, “5-ioso-2-pyrimidinone nucleoside” (The Research Foundation of State University of New York, priority 1988, dated 1990).
# Values joined by “and” are separate entries in the source; they are usually repeats but may differ in a detail not shown here. Equal values may be shown once. “Also recorded” adds a separate entry of the source. Read-outs that look alike come from different tables or passages of the source.
# Assays:
# [1] = system: ACG (S1), acyclovir resistant strain of HSV1; assay: Antiherpes activity, acyclovir resistant strain of HSV1 (S1) (Example 10); assay type: cell-based, HSV-1
# Description: (§1) IPdR and 5-bromo-2-pyrimidinone-2-deoxyribonucleoside (BrPdR) were tested for antiherpes activity according to procedures described by Cheng, Y.-C., et al. Antimicrob. Agents Chemother (1976) 10, 119.
# [2] = Cytotoxicity / cell proliferation in KB cells (Example 8 Part B); assay type: cell-based, human; conditions: human, kb cells, 72 hour exposure
# Description: (§2) To compare the toxicity of FPdR and IPdR human nasopharyngeal carcinoma KB cells obtained from the American Type Culture Collection were maintained as a monolayer in RPMI 1640 supplemented with 5% fetal bovine serum, 10 mM HEPES buffer (pH 7.4) and karamycin (100 μg/ml). Cells were maintained at 37° C. in a humidified atmosphere of 5% CO2 in air. Cell numbers were determined with an electronic particle counter (Particle Data, Inc., Elmhurst, Ill.).
# (§3) For determination of drug effect on cell proliferation, cells were harvested from rapidly proliferting cultures by treatment with pancreation. Cell number was determined and plated in 24 well (6 mm well diameter) plates at a concentratin of 5×10^3 cells/ml. Drug exposures were initiated by a complete change of medium after overnight incubation. Following a 72 hour drug exposure […]. of thiazolyl blue was added and incubated for a further 4 hour period. The media from the plates was aspirated completely and […] DMSO was added to each well. The plates were placed on a shaker for 5 minutes and the blue solution transferred to 96 well plates and read at 540 nm with a scanning multiwell spectrophotometer (Biotek Instruments, Inc. Burlington, Vt.).
# [3] = system: human nasopharyngeal carcinoma KB cells; assay: as above; assay type: cell-based
# Description: as §2, §3
# [4] = system: HSV-1 and HSV-2 strains (herpes virus group); assay: Antiherpes activity, overall statement; assay type: cell-based
# Description: as §1
# [5] = system: ACG (Tr7), acyclovir resistant strain of HSV1; assay: Antiherpes activity, acyclovir resistant strain of HSV1 (Tr7) (Example 10); assay type: cell-based, HSV-1; conditions: Human alphaherpesvirus 1, read-out: plaque-forming units as % of control
# Description: as §1
# [6] = system: virus-specific thymadine kinase; assay: Binding to the virus-specific thymidine kinase (Example 10); conditions: compared with BrPdR
# [7] = system: acyclovir (ACG) and BVdU resistant strains of HSV-1; assay: Antiherpes activity against acyclovir (ACG) and BVdU resistant strains of HSV-1, overall statement; assay type: cell-based
# Description: as §1
# HSV-2 (Strain 333) [8] = assay: Antiviral activity in HSV-2 infected mice by various routes (Example 9); assay type: in vivo, Swiss-Webster female mice; conditions: for % ILS: excluding 45 day survivors
# Description: The drugs were administered once a day for five days or twice daily (12 hour intervals) for 2.5 days beginning 24 hours postinfection. Mean body weight determinations of drug treated and control animals were made during the treatment period as an indicator of sublethal toxicity. Deaths were recorded through day 45.
# HSV-2 (333) = assay: Antiherpes activity, HSV-2 (333) (Example 10); assay type: cell-based; conditions: Human alphaherpesvirus 2; 100 μM; read-out: plaque-forming units as % of control
# Description: as §1
# HSV-1 (CLl0l) = assay: Antiherpes activity, HSV-1 (CLl0l) (Example 10); assay type: cell-based; conditions: Human alphaherpesvirus 1; 100 μM; read-out: plaque-forming units as % of control
# Description: as §1
# HSV-1 (KOS) = assay: Antiherpes activity, HSV-1 (KOS) (Example 10); assay type: cell-based; conditions: Human alphaherpesvirus 1; 100 μM; read-out: plaque-forming units as % of control
# Description: as §1
# HSV-2 (333 strain) = assay: In vivo test of IPdR in mice implanted with HSV-2 (333 strain), survival (Example 4); design: species or system Swiss Webster Balb/C mice; conditions: 100 mg/kg twice daily for 2.5 days; for DAYS--SURVIVAL: deaths: 5 mice; for long term survivors (>30 days): out of 5 mice
# Description: The substituted pyrimidinone of Example 3, 1-(2-deoxy)-β-D-ribofuranosyl)-5-iodo-2-pyrimidinone (IPdR) was tested in vivo. Three groups of five Swiss Webster Balb/C mice weighing from 19 to 23 grams were implanted with HSV-2 (333 strain) with a virus load of 5×10^5 plaque forming units.
# Drug administration began one day following virus implant. The IPdR was administered subcutaneously to a first group of mice and intraperitoneally to a second group of mice. The third group of mice which performed as controls were not given any IPdR. The dosage of IPdR was at the rate of 100 mg/kg twice daily for 2.5 days for a total of 5 doses.
# [9] = system: BVdU resistant strain of HSV-1; assay: Antiherpes activity, BVdU resistant strain (Example 10); assay type: cell-based; conditions: Human alphaherpesvirus 1, read-out: plaque-forming units as % of control
# Description: as §1
# HSV-2 (strain 333) [10] = assay: Antiviral activity, HSV-2 plaque reduction (Example 8 Part A); assay type: cell-based
# Description: The effects of 1-(2-Deoxy-β-D-ribofuranosyl)-5-iodo-2-pyrimidinone (IPdR) of Example 3 were compared with 1-(2-Deoxy-β-D-ribofuranosyl)-5-fluoro-2-pyrimidinone (FPdR) on HSV-2 (strain 333) in […]. Twenty four well plates (sterile) were plated with 10^6 Vero cells/well the day before infecting. 250 PFU of HSV-2 were used in each well. The test compounds, IPdR and FPdR, were added at zero times of post infection and the cultures incubated at 37° C. for 48 hours. At the end of the incubation period the media was removed from Vero cells. Plates were strained with 0.8% crystal violet in 50% ethanol for 15 minutes. The plaque was counted.
# PFA-resistant strains = assay: Antiherpes activity, PFA-resistant strain (Example 10); assay type: cell-based
# Description: as §1
# [11] = 100 mg/kg oral, 2 × 21/2, 72 hours after implant
# [12] = 100 mg/kg oral, 2 × 21/2, innoculation dose 1 × 10^6 PFU
structure (smiles),measurement,setting,value
"O=c1ncc(I)cn1[C@H]1C[C@H](O)[C@@H](CO)O1 [IPdR, 1-(2-Deoxy-β-D-Ribofuranosyl)-5-iodo-2-pyrimidinone]",activity at 100 µM,"[1]; Human alphaherpesvirus 1, read-out: plaque-forming units as % of control",22%
same,cross resistance of the more highly ACG-resistant strain,[1]; S1 compared with Tr7,more cross resistance
same,"activity at 72 h, 100 µM","[2]; 100 μm, read-out: % Growth",75%
same,"activity at 72 h, 200 µM","[2]; 200 μm, read-out: % Growth",80%
same,IC50 at 72 h,"[2]; cytotoxicity, read-out: ID50",> 200 µM
same,toxicity against the host cells,[3],low level of toxicity for the host cell
same,antiherpes / anti-viral activity (words),[4],significant antiherpes activities; also recorded: showing the higher activity
same,antiherpes / anti-viral activity (words),[4]; listed as 1-(2-Deoxy-β-D-ribofuranosyl)-5-(iodo)-2-pyrimidinone,high level of anti-viral activity
same,activity at 100 µM,[5],2.6%
same,binding to the virus-specific thymadine kinase,[6],stronger binding to the virus-specific thymadine kinase
same,activity against acyclovir (ACG) and BVdU resistant strains,[7],somewhat reduced but still significant activity
same,Survivors/Total,"HSV-2 (Strain 333) [8]; 10 mg/kg IP, 2 × 21/2",0/5
same,percent survival,"HSV-2 (Strain 333) [8]; 10 mg/kg IP, 2 × 21/2",0%
same,"Mean Survival Time (days), of the mice that died","HSV-2 (Strain 333) [8]; 10 mg/kg IP, 2 × 21/2, control 9.3 ± 1.1",12.8 ± 3.6 days
same,% ILS,"HSV-2 (Strain 333) [8]; 10 mg/kg IP, 2 × 21/2",133%
same,Survivors/Total,"HSV-2 (Strain 333) [8]; 10 mg/kg oral, 2 × 21/2",0/5
same,percent survival,"HSV-2 (Strain 333) [8]; 10 mg/kg oral, 2 × 21/2",0%
same,"Mean Survival Time (days), of the mice that died","HSV-2 (Strain 333) [8]; 10 mg/kg oral, 2 × 21/2, control 10.6 ± 2.1",12.8 ± 3.6 days
same,% ILS,"HSV-2 (Strain 333) [8]; 10 mg/kg oral, 2 × 21/2",123%
same,Survivors/Total,"HSV-2 (Strain 333) [8]; 40 mg/kg IP, 2 × 21/2",2/5
same,percent survival,"HSV-2 (Strain 333) [8]; 40 mg/kg IP, 2 × 21/2",40%
same,"Mean Survival Time (days), of the mice that died","HSV-2 (Strain 333) [8]; 40 mg/kg IP, 2 × 21/2, control 9.3 ± 1.1",10.0 ± 1.0 days
same,% ILS,"HSV-2 (Strain 333) [8]; 40 mg/kg IP, 2 × 21/2",108%
same,Survivors/Total,"HSV-2 (Strain 333) [8]; 40 mg/kg oral, 2 × 21/2",2/5
same,percent survival,"HSV-2 (Strain 333) [8]; 40 mg/kg oral, 2 × 21/2",40%
same,Mean Survival Time,"HSV-2 (Strain 333) [8]; 40 mg/kg oral, 2 × 21/2, control 10.6 ± 2.1",10.0 ± 1.0 days
same,% ILS,"HSV-2 (Strain 333) [8]; 40 mg/kg oral, 2 × 21/2",94%
same,Survivors/Total,"HSV-2 (Strain 333) [8]; 100 mg/kg IP, 1 × 5",7/10
same,percent survival,"HSV-2 (Strain 333) [8]; 100 mg/kg IP, 1 × 5",70%
same,"Mean Survival Time (days), of the mice that died","HSV-2 (Strain 333) [8]; 100 mg/kg IP, 1 × 5, control 9.6 ± 1.1",12.0 ± 4.4 days
same,% ILS,"HSV-2 (Strain 333) [8]; 100 mg/kg IP, 1 × 5",129%
same,Survivors/Total,"HSV-2 (Strain 333) [8]; 100 mg/kg IP, 2 × 21/2",6/10
same,percent survival,"HSV-2 (Strain 333) [8]; 100 mg/kg IP, 2 × 21/2",60%
same,"Mean Survival Time (days), of the mice that died","HSV-2 (Strain 333) [8]; 100 mg/kg IP, 2 × 21/2, control 9.3 ± 1.1",12.5 ± 1.3 days
same,% ILS,"HSV-2 (Strain 333) [8]; 100 mg/kg IP, 2 × 21/2",135%
same,Survivors/Total,"HSV-2 (Strain 333) [8]; 100 mg/kg SC, 1 × 5",2/5
same,percent survival,"HSV-2 (Strain 333) [8]; 100 mg/kg SC, 1 × 5",40%
same,"Mean Survival Time (days), of the mice that died","HSV-2 (Strain 333) [8]; 100 mg/kg SC, 1 × 5, control 9.4 ± 1.1",12.3 ± 1.2 days
same,% ILS,"HSV-2 (Strain 333) [8]; 100 mg/kg SC, 1 × 5",131%
same,Survivors/Total,"HSV-2 (Strain 333) [8]; 100 mg/kg oral, 2 × 21/2",20/20
same,percent survival,"HSV-2 (Strain 333) [8]; 100 mg/kg oral, 2 × 21/2",100%
same,Survivors/Total,HSV-2 (Strain 333) [8]; [11],5/5
same,percent survival,HSV-2 (Strain 333) [8]; [11],100%
same,Mean Survival Time,"HSV-2 (Strain 333) [8]; 100 mg/kg oral, 2 × 21/2, control 9.8 ± 1.3",> 45 days
same,Mean Survival Time,"HSV-2 (Strain 333) [8]; 100 mg/kg oral, 2 × 21/2, control 10.6 ± 2.1",> 45 days
same,Survivors/Total,HSV-2 (Strain 333) [8]; [12],4/5
same,percent survival,HSV-2 (Strain 333) [8]; [12],80%
same,"Mean Survival Time (days), of the mice that died","HSV-2 (Strain 333) [8]; 100 mg/kg oral, 2 × 21/2, innoculation dose 1 × 10^6 PFU, control 10.0 ± 1.2",14.0 days
same,% ILS,HSV-2 (Strain 333) [8]; [12],140%
same,toxicity to the host,"HSV-2 (Strain 333) [8]; oral, intraperitoneal or subcutaneous",without significant toxicity to the host
same,activity against HSV-2 in vivo / life span of the host,HSV-2 (Strain 333) [8]; summary of Table 5,active against HSV-2 in vivo; also recorded: can significantly increase
same,activity at 100 µM,HSV-2 (333),2.8%
same,activity at 100 µM,HSV-1 (CLl0l),1.6%
same,activity at 100 µM,HSV-1 (KOS),0.27%
same,DAYS--SURVIVAL: deaths,HSV-2 (333 strain); intraperitoneal,1 died on day 17
same,long term survivors (>30 days),HSV-2 (333 strain); intraperitoneal,4
same,DAYS--SURVIVAL: deaths,"HSV-2 (333 strain); subcutaneous, 100 mg/kg",1 died on day 11 and 2 died on day 13
same,long term survivors (>30 days),HSV-2 (333 strain); subcutaneous,2
same,DAYS--SURVIVAL: days average,"HSV-2 (333 strain); subcutaneous, control 9.4 days average",12 days
same,activity at 100 µM,[9],14%
same,"antiviral activity, comparison of IPdR and FPdR",HSV-2 (strain 333) [10],comparable in antiviral activity
same,inhibition at 100 µM,"HSV-2 (strain 333) [10]; Human alphaherpesvirus 2, Vero, 100 μM, 48 hours",51.1%
same,activity against PFA-resistant strains,PFA-resistant strains,retained full activity
same,activity at 100 µM,"PFA-resistant strains; 100 μM, read-out: plaque-forming units as % of control",0.1%
